Results published in patent US10350256B2, “Compositions for the treatment of dermatological conditions, disorders or diseases” (Veit Hoermann Gesellschaft Für Unternehmenskommunikation mbH, priority 2012, dated 2019).

How the values were obtained:
Type in all cases: in vivo, human
atopic eczema = test: Case reports, topical treatment of atopic eczema; settings: Patient B, earlier conventional therapies
From the text: (§1) Various patients have been treated topically with one of the compositions of Example 1 (Recipe N) and Example 2 (Recipe P). These patients were therapy-refractory, i.e. the patients had already been treated with standard therapies to no avail. […] Since the patients had been suffering from their respective diseases for a long time, the treatment with the compositions of the present invention seems to be effective in all stages of the diseases.
A patient suffering from atopic eczema for all their life received a continuous treatment of the affected body parts (elbows, neck, face, legs) over one month with the composition of Example 1 (Recipe N) in an amount of 1 to 10 grams in two treatments per day.
A patient suffering from atopic eczema for more than 20 years received a treatment of the affected body parts (elbows, neck, face) with the composition of Example 1 (Recipe N) for two weeks in an amount of 3 grams in two treatments per day. […] The patient stated that they had never felt so good in 20 years.
A patient suffering from atopic eczema from early childhood on, including dryness and severe itching of the affected areas of the skin, received treatment with olive oil two times a week for two months. […] Accordingly, the treatment was discontinued.
A patient suffering from atopic eczema since birth received a continuous treatment with black cumin oil for two days.

psoriasis arthritis = test: Case report, topical treatment of psoriasis arthritis; settings: Patient D
From the text: as §1
A patient suffering from psoriasis arthritis for more than 12 years received a treatment of the entire body with the composition of Example 2 (Recipe P). The composition was used regularly over two months in an amount of 150 g per day. The patient had already undergone several failed standard treatments, including cortisone treatment.

psoriasis vulgaris = test: Case reports, treatment of psoriasis vulgaris; settings: Patient H, inpatient treatment
From the text: A patient suffering from psoriasis vulgaris affecting the whole body started a continuous treatment with black cumin oil for six months after several failed therapies with e.g. Daivobet gel.
A patient suffering from suberythrodermic psoriasis vulgaris with iridocyclitis for 13 years received inpatient treatment to intensify therapy after exacerbation for two weeks and severe itching.
Hyperkeratotic plaques were found between the fingers, discreet macerations between the toes, well defined, deeply red foci at the rima ani, and discreet redness at the penis. The psoriasis area and severity index (PASI) at admission was 36.
During inpatient treatment a therapy with fumaric acid was started; the patient further received Ceterizin and Atarax. […] Local treatments included treatment with dithranol vaseline and kopflanette. Further, the whole integument received baths with soft soap and Balneum-Hermal F. The capillitium received Silix washing oil and betamethasone.
The patient further used Curatoderm emulsion for the face. Intertrigines were treated with Candiohermal and Psorcutan ointment. The PASI at discharge was 14.7.
The further medication after discharge from the hospital included fumaric acid, Loratadin, Psorcutan ointment, urea-containing ointment, and Curatoderm emulsions. […]

Compound	outcome of earlier conventional therapy (atopic eczema)	outcome of earlier standard treatments (psoriasis arthritis)	itching under treatment (psoriasis vulgaris)
C[C@]12CCC(=O)C=C1CC[C@@H]1[C@@H]2C(=O)C[C@@]2(C)[C@H]1CC[C@]2(O)C(=O)CO [cortisone]	without any success	failed	
O=C(O)COCCN1CCN(C(c2ccccc2)c2ccc(Cl)cc2)CC1 (stereo not drawn) [Ceterizin]			Itching remained
